Laboratory results: ChEMBL document CHEMBL1201862, “PubChem BioAssay data set” (2004)
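Values below derive from 48-hour exposures of cells grown in 96-well plates, with endpoints linearly interpolated between the two concentrations bracketing the appropriate inhibition level. The concentration for 50% growth inhibition is given as GI50.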 Active and inactive are the calls of the source. Cut-off read from the data, not from the text of the source: active = GI50 up to about 1.1 µM and inactive = higher.

What was measured:
Test in all cases: growth of human tumour cells (NCI), 48 h
[1] = tested on: OVCAR-4
[2] = tested on: U-251
[3] = tested on: MDA-N
[4] = tested on: K562
[5] = tested on: SNB-75
[6] = tested on: NCI/ADR-RES
[7] = tested on: RPMI-8226
[8] = tested on: HCT-116
[9] = tested on: RXF 393
[10] = tested on: MDA-MB-231
[11] = tested on: UACC-62
[12] = tested on: KM12
[13] = tested on: SK-OV-3
[14] = tested on: SW-620
[15] = tested on: MOLT-4
[16] = tested on: NCI-H226
[17] = tested on: OVCAR-5
[18] = tested on: LOX IMVI
[19] = tested on: HCC 2998
[20] = tested on: DU-145

Structure (SMILES) | GI50 [1] | GI50 [2] | GI50 [3] | GI50 [4] | GI50 [5] | GI50 [6] | GI50 [7] | GI50 [8] | GI50 [9] | GI50 [10] | GI50 [11] | GI50 [12] | GI50 [13] | GI50 [14] | GI50 [15] | GI50 [16] | GI50 [17] | GI50 [18] | GI50 [19] | GI50 [20]
C=C1C(=O)OC2/C=C(\CO)C3OC3C3OC3(C)CC(OC(=O)/C(=C/C)COC(C)=O)C12 (stereo not given) | 8.3 µM (inactive) | 5 µM (inactive) | 3.58 µM (inactive) | 16 µM (inactive) | 9.68 µM (inactive) | 12.1 µM (inactive) | > 100 µM (inactive) | 1.55 µM (inactive) | 1.71 µM (inactive) | 6.04 µM (inactive) | 2.86 µM (inactive) | 7.31 µM (inactive) | 18.2 µM (inactive) | 1.35 µM (inactive) | 7.89 µM (inactive) | 21.6 µM (inactive) | 15.3 µM (inactive) | 1.51 µM (inactive) | 16.5 µM (inactive) | 17.1 µM (inactive)
Oc1ncc(Cl)c(O)n1 | > 100 µM (inactive) | > 100 µM (inactive) | > 100 µM (inactive) | > 100 µM (inactive) | > 100 µM (inactive) | > 100 µM (inactive) | > 100 µM (inactive) | > 100 µM (inactive) | > 100 µM (inactive) | > 100 µM (inactive) | > 100 µM (inactive) | > 100 µM (inactive) | > 100 µM (inactive) | > 100 µM (inactive) | > 100 µM (inactive) | > 100 µM (inactive) | > 100 µM (inactive) | > 100 µM (inactive) | > 100 µM (inactive) | > 100 µM (inactive)
C#CCSc1cnc2ccccc2c1Sc1c[nH]c2ccccc2c1=O | 20.9 µM (inactive) | 15 µM (inactive) | 18.1 µM (inactive) | 9.35 µM (inactive) | 15.9 µM (inactive) | 33 µM (inactive) | 4.2 µM (inactive) | 13.3 µM (inactive) | 13.6 µM (inactive) | 31.9 µM (inactive) | 17.1 µM (inactive) | 21.1 µM (inactive) | 30.3 µM (inactive) | 24.8 µM (inactive) | 4.53 µM (inactive) | 21 µM (inactive) | 32.7 µM (inactive) | 13.8 µM (inactive) | 17.9 µM (inactive) | 51.3 µM (inactive)
Cc1cc(O)c2c(c1)C(=O)C(c1c(C)cc3c(c1O)C(=O)C1OC1C3=O)=CC2=O (stereo not given) | 3.33 µM (inactive) | 6.9 µM (inactive) | 1.27 µM (inactive) | 0.339 µM (active) | 12.4 µM (inactive) | 2.77 µM (inactive) | 0.357 µM (active) | 1.71 µM (inactive) | 1.35 µM (inactive) | 2.03 µM (inactive) | 2.04 µM (inactive) | 13.7 µM (inactive) | 17.7 µM (inactive) | 1.42 µM (inactive) | 0.147 µM (active) | 16.1 µM (inactive) | 5.27 µM (inactive) | 2.02 µM (inactive) | 5.93 µM (inactive) | 6.7 µM (inactive)
CN(Nc1cc(=O)[nH]c(=O)[nH]1)c1ccccc1 | > 100 µM (inactive) | > 100 µM (inactive) | > 100 µM (inactive) | > 100 µM (inactive) | 58.9 µM (inactive) | > 100 µM (inactive) | > 100 µM (inactive) | > 100 µM (inactive) | > 100 µM (inactive) | > 100 µM (inactive) | > 100 µM (inactive) | > 100 µM (inactive) | > 100 µM (inactive) | > 100 µM (inactive) | > 100 µM (inactive) | > 100 µM (inactive) | > 100 µM (inactive) | > 100 µM (inactive) | > 100 µM (inactive) | > 100 µM (inactive)
CC(C)CCC(=O)c1ccoc1 [PERILLAKETONE] | > 100 µM (inactive) | > 100 µM (inactive) | > 100 µM (inactive) | > 100 µM (inactive) | > 100 µM (inactive) | > 100 µM (inactive) | > 100 µM (inactive) | > 100 µM (inactive) | > 100 µM (inactive) | > 100 µM (inactive) | > 100 µM (inactive) | > 100 µM (inactive) | > 100 µM (inactive) | > 100 µM (inactive) | > 100 µM (inactive) | > 100 µM (inactive) | > 100 µM (inactive) | > 100 µM (inactive) | > 100 µM (inactive) | > 100 µM (inactive)
